Tests used:
Test in all cases: NADH oxidation at […] nm, reductive amination of 2-oxoglutarate
Format in all cases: biochemical
[1] = target: hGDH2 (human glutamate dehydrogenase isozyme 2) (Homo sapiens, UniProt P49448)
[2] = target: hGDH2 (human glutamate dehydrogenase isozyme 2) (Homo sapiens, UniProt P49448, C146A)
[3] = target: hGDH2 (human glutamate dehydrogenase isozyme 2) (Homo sapiens, UniProt P49448, C327A)
[4] = target: hGDH2 (human glutamate dehydrogenase isozyme 2) (Homo sapiens, UniProt P49448, C172A)
[5] = target: hGDH2 (human glutamate dehydrogenase isozyme 2) (Homo sapiens, UniProt P49448, C254A)
[6] = target: hGDH2 (human glutamate dehydrogenase isozyme 2) (Homo sapiens, UniProt P49448, C112A)
Sequence of hGDH2 (human glutamate dehydrogenase isozyme 2) (Homo sapiens, UniProt P49448, C112A) (P49448 54-558 C112A): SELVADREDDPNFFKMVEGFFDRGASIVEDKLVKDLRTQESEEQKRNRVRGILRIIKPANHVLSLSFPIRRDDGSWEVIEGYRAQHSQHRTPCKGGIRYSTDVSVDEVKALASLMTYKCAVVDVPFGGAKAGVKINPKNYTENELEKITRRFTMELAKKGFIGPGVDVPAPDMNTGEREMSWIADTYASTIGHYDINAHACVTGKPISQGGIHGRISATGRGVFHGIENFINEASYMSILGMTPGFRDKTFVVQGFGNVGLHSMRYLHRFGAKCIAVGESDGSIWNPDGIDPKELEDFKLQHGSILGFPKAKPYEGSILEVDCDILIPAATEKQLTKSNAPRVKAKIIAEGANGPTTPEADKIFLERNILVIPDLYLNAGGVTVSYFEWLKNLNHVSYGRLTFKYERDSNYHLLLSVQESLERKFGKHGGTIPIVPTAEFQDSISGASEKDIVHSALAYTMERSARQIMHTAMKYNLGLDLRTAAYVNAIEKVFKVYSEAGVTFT

Sequence of hGDH2 (human glutamate dehydrogenase isozyme 2) (Homo sapiens, UniProt P49448, C327A) (P49448 54-558 C327A): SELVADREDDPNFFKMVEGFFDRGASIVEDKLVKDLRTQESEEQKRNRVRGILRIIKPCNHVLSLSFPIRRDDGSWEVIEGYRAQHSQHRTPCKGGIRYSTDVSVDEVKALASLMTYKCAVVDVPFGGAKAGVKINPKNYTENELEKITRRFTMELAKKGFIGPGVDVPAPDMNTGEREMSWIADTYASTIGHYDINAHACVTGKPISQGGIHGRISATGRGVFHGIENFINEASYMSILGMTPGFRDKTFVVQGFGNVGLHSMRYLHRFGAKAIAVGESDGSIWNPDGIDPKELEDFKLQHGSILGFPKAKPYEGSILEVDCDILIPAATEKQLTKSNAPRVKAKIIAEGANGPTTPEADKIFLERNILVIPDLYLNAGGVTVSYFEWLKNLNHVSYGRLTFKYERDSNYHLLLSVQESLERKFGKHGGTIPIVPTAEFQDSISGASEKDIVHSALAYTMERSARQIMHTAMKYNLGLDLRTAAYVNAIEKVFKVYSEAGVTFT
Sequence of hGDH2 (human glutamate dehydrogenase isozyme 2) (Homo sapiens, UniProt P49448, C254A) (P49448 54-558 C254A): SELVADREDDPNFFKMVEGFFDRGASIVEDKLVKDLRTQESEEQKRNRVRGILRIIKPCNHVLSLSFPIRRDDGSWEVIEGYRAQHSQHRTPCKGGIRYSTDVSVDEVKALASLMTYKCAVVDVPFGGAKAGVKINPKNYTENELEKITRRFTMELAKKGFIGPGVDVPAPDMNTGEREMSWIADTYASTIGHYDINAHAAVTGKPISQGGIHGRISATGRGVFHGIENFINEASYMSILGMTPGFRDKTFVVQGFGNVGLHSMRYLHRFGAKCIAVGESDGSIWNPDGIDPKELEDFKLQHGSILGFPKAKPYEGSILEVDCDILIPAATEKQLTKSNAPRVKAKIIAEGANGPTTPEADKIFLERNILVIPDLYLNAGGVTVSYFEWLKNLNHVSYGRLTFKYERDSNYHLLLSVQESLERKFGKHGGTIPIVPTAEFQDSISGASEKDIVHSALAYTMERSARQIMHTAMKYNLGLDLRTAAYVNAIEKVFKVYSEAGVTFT
Sequence of hGDH2 (human glutamate dehydrogenase isozyme 2) (Homo sapiens, UniProt P49448, C146A) (P49448 54-558 C146A): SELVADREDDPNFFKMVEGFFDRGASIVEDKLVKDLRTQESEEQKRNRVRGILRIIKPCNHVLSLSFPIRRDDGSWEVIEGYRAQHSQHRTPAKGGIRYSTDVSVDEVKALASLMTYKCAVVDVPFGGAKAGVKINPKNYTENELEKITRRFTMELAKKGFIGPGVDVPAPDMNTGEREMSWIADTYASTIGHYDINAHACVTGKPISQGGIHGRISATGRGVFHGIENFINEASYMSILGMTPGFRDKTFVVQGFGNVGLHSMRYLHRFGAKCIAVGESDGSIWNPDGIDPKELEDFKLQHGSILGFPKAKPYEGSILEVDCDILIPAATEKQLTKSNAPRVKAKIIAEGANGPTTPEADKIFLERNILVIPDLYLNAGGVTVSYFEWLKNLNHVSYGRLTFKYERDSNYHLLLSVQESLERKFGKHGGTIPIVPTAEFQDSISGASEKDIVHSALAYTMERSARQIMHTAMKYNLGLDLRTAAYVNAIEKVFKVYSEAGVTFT
Sequence of hGDH2 (human glutamate dehydrogenase isozyme 2) (Homo sapiens, UniProt P49448, C172A) (P49448 54-558 C172A): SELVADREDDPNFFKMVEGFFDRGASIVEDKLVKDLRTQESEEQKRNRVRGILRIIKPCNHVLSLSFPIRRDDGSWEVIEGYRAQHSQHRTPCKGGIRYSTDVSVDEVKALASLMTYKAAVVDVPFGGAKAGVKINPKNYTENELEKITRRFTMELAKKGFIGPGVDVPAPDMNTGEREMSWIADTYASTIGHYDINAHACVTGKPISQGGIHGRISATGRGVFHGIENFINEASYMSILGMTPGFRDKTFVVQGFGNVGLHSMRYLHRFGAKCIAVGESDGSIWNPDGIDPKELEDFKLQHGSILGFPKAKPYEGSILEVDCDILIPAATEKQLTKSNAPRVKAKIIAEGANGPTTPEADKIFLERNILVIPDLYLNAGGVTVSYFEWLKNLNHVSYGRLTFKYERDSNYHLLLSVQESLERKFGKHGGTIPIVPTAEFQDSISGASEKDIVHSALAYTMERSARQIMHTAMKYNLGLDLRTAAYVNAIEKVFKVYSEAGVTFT
Sequence of hGDH2 (human glutamate dehydrogenase isozyme 2) (Homo sapiens, UniProt P49448) (P49448 54-558): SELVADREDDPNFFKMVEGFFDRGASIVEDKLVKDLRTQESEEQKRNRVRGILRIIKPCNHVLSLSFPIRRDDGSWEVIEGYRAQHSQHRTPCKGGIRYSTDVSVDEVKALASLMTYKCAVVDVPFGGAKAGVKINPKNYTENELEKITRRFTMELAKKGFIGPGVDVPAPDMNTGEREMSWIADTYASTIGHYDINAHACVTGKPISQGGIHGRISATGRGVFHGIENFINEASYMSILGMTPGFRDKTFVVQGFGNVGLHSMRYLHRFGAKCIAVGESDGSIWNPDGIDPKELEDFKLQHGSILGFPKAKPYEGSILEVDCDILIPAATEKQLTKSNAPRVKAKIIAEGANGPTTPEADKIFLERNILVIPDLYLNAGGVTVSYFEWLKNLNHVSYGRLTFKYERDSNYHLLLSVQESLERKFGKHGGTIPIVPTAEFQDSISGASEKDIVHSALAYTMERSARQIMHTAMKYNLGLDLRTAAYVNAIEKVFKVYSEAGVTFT

- IC50 [1]: 1.82 µM
- IC50 [2]: 2.6 µM
- IC50 [3]: 2.31 µM
- IC50 [4]: 1.98 µM
- IC50 [5]: 2.47 µM
- IC50 [6]: 2.15 µM
Compound: CCCCCCCCCCCCCCCC(=O)SCCNC(=O)CCNC(=O)[C@H](O)C(C)(C)COP(=O)(O)OP(=O)(O)OC[C@H]1O[C@@H](n2cnc3c(N)ncnc32)[C@H](O)[C@@H]1OP(=O)(O)O [palmitoyl-CoA]
